Results on 13 compounds are retold here after patent US8354441B2, “Oxazoline derivatives” (Hoffmann-La Roche Inc., priority 2009, dated 2013).

In test [1] the target is T1, mouse TAAR1 (Mus musculus, UniProt Q923Y8).
T1 construct: expressed in transfected cells; host or cells: HEK293 (ATCC # CRL-1573), stably transfected with pIRESneo2 expression plasmid
Briefly: TAAR1 radioligand binding with [3H]-rac-2-(1,2,3,4-tetrahydro-1-naphthyl)-2-imidazoline, membranes of stably transfected HEK293 cells. As to conditions: first value of the cell, read-out: Ki (μM) mouse/rat: mouse. In short, it runs like this:
(§1)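 Competition binding: competitors spanning 10 pM–30 μM displace 60 nM [3H]-rac-2-(1,2,3,4-tetrahydro-1-naphthyl)-2-imidazoline from stably transfected HEK293 membranes (mouse or rat receptor), 30 min, 4 °C, pH 7.0 buffer with Mg2+/Ca2+. Bound label counted after GF/C filtration; 10 μM unlabelled ligand defines non-specific binding.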

The target of test [2] is T2, rat TAAR1 (Rattus norvegicus, UniProt Q923Y9).
T2 construct: expressed in transfected cells; host or cells: HEK293 (ATCC # CRL-1573), stably transfected with pIRESneo2 expression plasmid
T2 sequence (Q923Y9 whole entry): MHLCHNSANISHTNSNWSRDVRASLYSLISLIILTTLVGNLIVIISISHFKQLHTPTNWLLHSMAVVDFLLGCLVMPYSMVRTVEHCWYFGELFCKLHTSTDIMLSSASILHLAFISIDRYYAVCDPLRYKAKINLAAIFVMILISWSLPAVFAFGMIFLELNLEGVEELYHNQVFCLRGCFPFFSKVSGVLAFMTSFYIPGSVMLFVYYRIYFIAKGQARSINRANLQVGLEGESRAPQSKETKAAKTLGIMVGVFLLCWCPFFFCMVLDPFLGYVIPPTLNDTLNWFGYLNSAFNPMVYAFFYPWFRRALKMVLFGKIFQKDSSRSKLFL
The description is as above. The note with it: second value of the cell, read-out: Ki (μM) mouse/rat: rat. In short, it runs like this: as §1

Structures are written as SMILES.

T1 sequence (Q923Y8 whole entry): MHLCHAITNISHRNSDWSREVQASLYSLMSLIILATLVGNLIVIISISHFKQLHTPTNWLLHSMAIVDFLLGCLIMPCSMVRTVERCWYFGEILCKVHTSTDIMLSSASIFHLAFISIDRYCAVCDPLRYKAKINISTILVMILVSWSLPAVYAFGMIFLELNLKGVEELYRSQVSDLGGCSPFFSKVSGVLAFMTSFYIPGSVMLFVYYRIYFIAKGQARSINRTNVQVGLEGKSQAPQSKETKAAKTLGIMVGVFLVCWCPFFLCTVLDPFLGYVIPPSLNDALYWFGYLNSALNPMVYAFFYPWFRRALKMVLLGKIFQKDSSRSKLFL

Turning to `COCc1ccc(C(=O)Nc2ccc(CC[C@H]3COC(N)=N3)cc2)cc1` [Example 63, N-{4-[2-((S)-2-Amino-4,5-dihydro-oxazol-4-yl)-ethyl]-phenyl}-4-methoxymethyl-benzamide], the Ki came to 0.0026 µM in test [1] and 0.0013 µM in test [2].

As for `NC1=N[C@@H](CCc2ccc(NC(=O)Nc3ccc(Cl)nc3)cc2)CO1` [Example 38, 1-{4-[2-((S)-2-Amino-4,5-dihydro-oxazol-4-yl)-ethyl]-phenyl}-3-(6-chloro-pyridin-3-yl)-urea], the figures for the Ki in test [1] and in test [2] were 0.0017 µM and 0.0004 µM, respectively.

On to `NC1=N[C@@H](CCc2ccc(NC(=O)c3ccc(F)cc3)cc2)CO1` [Example 16, N-{4-[2-((S)-2-Amino-4,5-dihydro-oxazol-4-yl)-ethyl]-phenyl}-4-fluoro-benzamide], for which the Ki came to 0.0008 µM in test [1] and 0.0003 µM in test [2].

Consider `COc1ccc(C(=O)Nc2ccc(CC[C@H]3COC(N)=N3)cc2)cc1` [Example 71, N-{4-[2-((S)-2-Amino-4,5-dihydro-oxazol-4-yl)-ethyl]-phenyl}-4-methoxy-benzamide], for which the Ki in test [1] stood at 0.0009 µM; in test [2] it was 0.0005 µM.

Take `COc1cc(C(=O)Nc2ccc(CC[C@H]3COC(N)=N3)cc2)nc(OC)n1` [Example 190, (S)-N-(4-(2-(2-Amino-4,5-dihydrooxazol-4-yl)ethyl)phenyl)-2,6-dimethoxypyrimidine-4-carboxamide]: the values for the Ki in test [1] and in test [2] were 0.0041 µM and 0.004 µM, respectively.

On to `NC1=N[C@@H](CCc2ccc(NC(=O)c3cc(Cl)nc(Cl)c3)cc2)CO1` [Example 175, (S)-N-(4-(2-(2-Amino-4,5-dihydrooxazol-4-yl)ethyl)phenyl)-2,6-dichloroisonicotinamide], for which the Ki in test [1] came to 0.0008 µM; in test [2], 0.0009 µM.

In the case of `NC1=N[C@@H](CCc2ccc(NC(=O)c3ccc(Cl)cc3Cl)cc2)CO1` [Example 137, (S)-N-(4-(2-(2-Amino-4,5-dihydrooxazol-4-yl)ethyl)phenyl)-2,4-dichlorobenzamide], the Ki in test [1] stood at 0.0003 µM; in test [2], 0.0006 µM.

As to `Cc1cc(C(=O)Nc2ccc(CC[C@H]3COC(N)=N3)cc2)ncc1Cl` [Example 155, (S)-N-(4-(2-(2-Amino-4,5-dihydrooxazol-4-yl)ethyl)phenyl)-5-chloro-4-methylpicolinamide], the Ki was 0.0004 µM in test [1] and 0.0006 µM in test [2].

`NC1=N[C@@H](CCc2ccc(NC(=O)c3cncc(Cl)c3)cc2)CO1` [Example 124, (S)-N-(4-(2-(2-Amino-4,5-dihydrooxazol-4-yl)ethyl)phenyl)-5-chloronicotinamide]: the Ki in test [1] was 0.004 µM; in test [2] it was 0.0061 µM.

In the case of `CCc1ccc(C(=O)Nc2ccc(CC[C@H]3COC(N)=N3)cc2)nc1` [Example 178, (S)-N-(4-(2-(2-Amino-4,5-dihydrooxazol-4-yl)ethyl)phenyl)-5-ethylpicolinamide], the Ki in test [1] and in test [2] was 0.0004 µM each time.

With `CCOc1ccc(C(=O)Nc2ccc(CC[C@H]3COC(N)=N3)cc2)cc1` [Example 60, N-{4-[2-((S)-2-Amino-4,5-dihydro-oxazol-4-yl)-ethyl]-phenyl}-4-ethoxy-benzamide], the Ki in test [1] is 0.001 µM; in test [2], 0.0006 µM.

With `C[C@@H]1OC(N)=N[C@H]1CCc1ccc(NC(=O)c2ccc(Cl)cc2)cc1` [Example 205, N-(4-(2-((4S,5S)-2-Amino-5-methyl-4,5-dihydrooxazol-4-yl)ethyl)phenyl)-4-chlorobenzamide], the Ki is 0.0007 µM in test [1] and 0.0005 µM in test [2].

Turning to `NC1=N[C@@H](CCc2ccc(NC(=O)c3ccc(C(F)(F)F)nc3)cc2)CO1` [Example 55, N-{4-[2-((S)-2-Amino-4,5-dihydro-oxazol-4-yl)-ethyl]-phenyl}-6-trifluoromethyl-nicotinamide], the Ki is 0.0025 µM in test [1] and 0.003 µM in test [2].
